Test system: Patients diagnosed with Alzheimer's Disease
Test: Adverse events / safety monitoring in the trial
Format: in vivo, human
Procedure: Subjects in the Placebo group received 21 weeks (5 months) of placebo medication.
The safety of the drug was also monitored throughout the study. Blood samples for biochemistry and haematology and random urine sample for urinalysis were taken at each visit and at completion for all efficacy testing. Systolic and diastolic blood pressure were measured in the sitting position, pulse and vital signs were recorded at each visit.

SMILES: COc1ccc2c3c1O[C@H]1C[C@@H](O)C=C[C@@]31CCN(C)C2 [GAL, galantamine]
- Adverse event Agitation, % of patients (8 mg/day): (15.0%)
- Adverse event Agitation, number of patients (8 mg/day): 21
- Adverse event Anorexia, % of patients (8 mg/day): (5.7%)
- Adverse event Anorexia, number of patients (8 mg/day): 8
- Adverse event Depression, % of patients (8 mg/day): (2.9%)
- Adverse event Depression, number of patients (8 mg/day): 4
- Adverse event Diarrhea, % of patients (8 mg/day): (5.0%)
- Adverse event Diarrhea, number of patients (8 mg/day): 7
- Adverse event Dizziness, % of patients (8 mg/day): (5.0%)
- Adverse event Dizziness, number of patients (8 mg/day): 7
- Adverse event Dyspepsia, % of patients (8 mg/day): (2.9%)
- Adverse event Dyspepsia, number of patients (8 mg/day): 4
- Adverse event Edema peripheral, % of patients (8 mg/day): (6.4%)
- Adverse event Edema peripheral, number of patients (8 mg/day): 9
- Adverse event Fall, % of patients (8 mg/day): (7.9%)
- Adverse event Fall, number of patients (8 mg/day): 11
- Adverse event Headache, % of patients (8 mg/day): (3.6%)
- Adverse event Headache, number of patients (8 mg/day): 5
- Adverse event Injury, % of patients (8 mg/day): (3.6%)
- Adverse event Injury, number of patients (8 mg/day): 5
- Adverse event Nausea, % of patients (8 mg/day): (5.7%)
- Adverse event Nausea, number of patients (8 mg/day): 8
- Adverse event Rhinitis, % of patients (8 mg/day): (6.4%)
- Adverse event Rhinitis, number of patients (8 mg/day): 9
- Adverse event Urinary tract infection, % of patients (8 mg/day): (7.9%)
- Adverse event Urinary tract infection, number of patients (8 mg/day): 11
- Adverse event Vomiting, % of patients (8 mg/day): (3.6%)
- Adverse event Vomiting, number of patients (8 mg/day): 5
- Adverse event Weight decrease, % of patients (8 mg/day): (1.4%)
- Adverse event Weight decrease, number of patients (8 mg/day): 2
- Adverse event of clinical interest Bradycardia, % of patients (8 mg/day): (3.6%)
- Adverse event of clinical interest Bradycardia, number of patients (8 mg/day): 5
- Adverse event of clinical interest Convulsions, number of patients (8 mg/day): 0
- Adverse event of clinical interest Fatigue, % of patients (8 mg/day): (2.1%)
- Adverse event of clinical interest Fatigue, number of patients (8 mg/day): 3
- Adverse event of clinical interest Muscle weakness, % of patients (8 mg/day): (0.7%)
- Adverse event of clinical interest Muscle weakness, number of patients (8 mg/day): 1
- Adverse event of clinical interest Syncope, % of patients (8 mg/day): (1.4%)
- Adverse event of clinical interest Syncope, number of patients (8 mg/day): 2
- Serious adverse event Abdominal pain, % of patients (8 mg/day): (0.0%)
- Serious adverse event Abdominal pain, number of patients (8 mg/day): 0
- Serious adverse event Agitation, % of patients (8 mg/day): (1.4%)
- Serious adverse event Agitation, number of patients (8 mg/day): 2
- Serious adverse event Asthenia, % of patients (8 mg/day): (0.0%)
- Serious adverse event Asthenia, number of patients (8 mg/day): 0
- Serious adverse event Basal cell carcinoma, % of patients (8 mg/day): (0.0%)
- Serious adverse event Basal cell carcinoma, number of patients (8 mg/day): 0
- Serious adverse event Breast neoplasm female, % of patients (8 mg/day): (0.0%)
- Serious adverse event Breast neoplasm female, number of patients (8 mg/day): 0
- Serious adverse event Cardiac failure, % of patients (8 mg/day): (0.0%)
- Serious adverse event Cardiac failure, number of patients (8 mg/day): 0
- Serious adverse event Dehydration, % of patients (8 mg/day): (0.0%)
- Serious adverse event Dehydration, number of patients (8 mg/day): 0
- Serious adverse event Diarrhea, % of patients (8 mg/day): (0.0%)
- Serious adverse event Diarrhea, number of patients (8 mg/day): 0
- Serious adverse event Dyspnea, % of patients (8 mg/day): (0.0%)
- Serious adverse event Dyspnea, number of patients (8 mg/day): 0
- Serious adverse event Fall, % of patients (8 mg/day): (2.9%)
- Serious adverse event Fall, number of patients (8 mg/day): 4
- Serious adverse event Gi haemorrhage, % of patients (8 mg/day): (0.0%)
- Serious adverse event Gi haemorrhage, number of patients (8 mg/day): 0
- Serious adverse event Injury, % of patients (8 mg/day): (0.7%)
- Serious adverse event Injury, number of patients (8 mg/day): 1
- Serious adverse event Myocardial infarction, % of patients (8 mg/day): (2.1%)
- Serious adverse event Myocardial infarction, number of patients (8 mg/day): 3
- Serious adverse event Nausea, % of patients (8 mg/day): (0.0%)
- Serious adverse event Nausea, number of patients (8 mg/day): 0
- Serious adverse event Pneumonia, % of patients (8 mg/day): (0.7%)
- Serious adverse event Pneumonia, number of patients (8 mg/day): 1
- Serious adverse event Sepsis, % of patients (8 mg/day): (0.0%)
- Serious adverse event Sepsis, number of patients (8 mg/day): 0
- Serious adverse event Surgical intervention, % of patients (8 mg/day): (0.0%)
- Serious adverse event Surgical intervention, number of patients (8 mg/day): 0
- Serious adverse event Syncope, % of patients (8 mg/day): (0.7%)
- Serious adverse event Syncope, number of patients (8 mg/day): 1
- Serious adverse event Thrombophlebitis deep, % of patients (8 mg/day): (0.0%)
- Serious adverse event Thrombophlebitis deep, number of patients (8 mg/day): 0
- Serious adverse event Transient ischemic attack, % of patients (8 mg/day): (0.7%)
- Serious adverse event Transient ischemic attack, number of patients (8 mg/day): 1
- Serious adverse event Urinary tract infection, % of patients (8 mg/day): (0.7%)
- Serious adverse event Urinary tract infection, number of patients (8 mg/day): 1
- Serious adverse event Vomiting, % of patients (8 mg/day): (0.0%)
- Serious adverse event Vomiting, number of patients (8 mg/day): 0
- Total patients with any SAE, % (8 mg/day): (10.0%)
- Total patients with any SAE, number (8 mg/day): 14
- Adverse event Agitation, % of patients (16 mg/day): (10.0%)
- Adverse event Agitation, number of patients (16 mg/day): 28
- Adverse event Anorexia, % of patients (16 mg/day): (6.5%)
- Adverse event Anorexia, number of patients (16 mg/day): 18
- Adverse event Depression, % of patients (16 mg/day): (8.6%)
- Adverse event Depression, number of patients (16 mg/day): 24
- Adverse event Diarrhea, % of patients (16 mg/day): (12.2%)
- Adverse event Diarrhea, number of patients (16 mg/day): 34
- Adverse event Dizziness, % of patients (16 mg/day): (5.4%)
- Adverse event Dizziness, number of patients (16 mg/day): 15
- Adverse event Dyspepsia, % of patients (16 mg/day): (4.7%)
- Adverse event Dyspepsia, number of patients (16 mg/day): 13
- Adverse event Edema peripheral, % of patients (16 mg/day): (2.9%)
- Adverse event Edema peripheral, number of patients (16 mg/day): 8
- Adverse event Fall, % of patients (16 mg/day): (5.05%)
- Adverse event Fall, number of patients (16 mg/day): 14
- Adverse event Headache, % of patients (16 mg/day): (6.8%)
- Adverse event Headache, number of patients (16 mg/day): 19
- Adverse event Injury, % of patients (16 mg/day): (4.3%)
- Adverse event Injury, number of patients (16 mg/day): 12
- Adverse event Nausea, % of patients (16 mg/day): (13.3%)
- Adverse event Nausea, number of patients (16 mg/day): 37
- Adverse event Rhinitis, % of patients (16 mg/day): (3.2%)
- Adverse event Rhinitis, number of patients (16 mg/day): 9
- Adverse event Urinary tract infection, % of patients (16 mg/day): (8.2%)
- Adverse event Urinary tract infection, number of patients (16 mg/day): 23
- Adverse event Vomiting, % of patients (16 mg/day): (6.1%)
- Adverse event Vomiting, number of patients (16 mg/day): 17
- Adverse event Weight decrease, % of patients (16 mg/day): (5.4%)
- Adverse event Weight decrease, number of patients (16 mg/day): 15
- Adverse event of clinical interest Bradycardia, % of patients (16 mg/day): (2.5%)
- Adverse event of clinical interest Bradycardia, number of patients (16 mg/day): 7
- Adverse event of clinical interest Convulsions, number of patients (16 mg/day): 0
- Adverse event of clinical interest Fatigue, % of patients (16 mg/day): (3.6%)
- Adverse event of clinical interest Fatigue, number of patients (16 mg/day): 10
- Adverse event of clinical interest Muscle weakness, % of patients (16 mg/day): (1.1%)
- Adverse event of clinical interest Muscle weakness, number of patients (16 mg/day): 3
- Adverse event of clinical interest Syncope, % of patients (16 mg/day): (1.8%)
- Adverse event of clinical interest Syncope, number of patients (16 mg/day): 5
- Serious adverse event Abdominal pain, % of patients (16 mg/day): (0.7%)
- Serious adverse event Abdominal pain, number of patients (16 mg/day): 2
- Serious adverse event Agitation, % of patients (16 mg/day): (0.4%)
- Serious adverse event Agitation, number of patients (16 mg/day): 1
- Serious adverse event Asthenia, % of patients (16 mg/day): (0.7%)
- Serious adverse event Asthenia, number of patients (16 mg/day): 2

From patent publication US20060172993A1 (priority 2002, published 2006)
